Laboratory results published in ChEMBL document CHEMBL1201862, “PubChem BioAssay data set” (2004).
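Dose response: 5 concentrations. Exposure: 48 h. Format: 96-well plates. Endpoint: linear interpolation; highest concentration if not reached. GI50 is the concentration that inhibits growth by half.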 The source made the active and inactive calls. Cut-off read from the data, not from the text of the source: active = GI50 up to about 1.1 µM and inactive = higher.

How the values were obtained:
Assay in all cases: growth of human tumour cells (NCI), 48 h
786-0 = system: 786-0
A498 = system: A498
A549 = system: A549
ACHN = system: ACHN
BT-549 = system: BT-549
CAKI-1 = system: CAKI-1
CCRF-CEM = system: CCRF-CEM
COLO 205 = system: COLO 205
DU-145 = system: DU-145
EKVX = system: EKVX
HCC 2998 = system: HCC 2998
HCT-116 = system: HCT-116
HCT-15 = system: HCT-15
HL-60 = system: HL-60
HOP-62 = system: HOP-62
HOP-92 = system: HOP-92
HT-29 = system: HT-29
Hs-578T = system: Hs-578T
IGROV-1 = system: IGROV-1
K562 = system: K562
KM12 = system: KM12
LOX IMVI = system: LOX IMVI
M14 = system: M14
MCF7 = system: MCF7
MDA-MB-231 = system: MDA-MB-231
MDA-MB-435 = system: MDA-MB-435
MOLT-4 = system: MOLT-4
Malme-3M = system: Malme-3M
NCI-H226 = system: NCI-H226
NCI-H23 = system: NCI-H23
NCI-H460 = system: NCI-H460
NCI-H522 = system: NCI-H522
NCI/ADR-RES = system: NCI/ADR-RES
OVCAR-3 = system: OVCAR-3
OVCAR-4 = system: OVCAR-4
OVCAR-5 = system: OVCAR-5
OVCAR-8 = system: OVCAR-8
PC-3 = system: PC-3
RPMI-8226 = system: RPMI-8226
SF-268 = system: SF-268
SF-295 = system: SF-295
SF-539 = system: SF-539
SK-MEL-28 = system: SK-MEL-28
SK-MEL-2 = system: SK-MEL-2
SK-MEL-5 = system: SK-MEL-5
SK-OV-3 = system: SK-OV-3
SN12C = system: SN12C
SNB-19 = system: SNB-19
SNB-75 = system: SNB-75
SR = system: SR
SW-620 = system: SW-620
T47D = system: T47D
TK-10 = system: TK-10
U-251 = system: U-251
UACC-257 = system: UACC-257
UACC-62 = system: UACC-62
UO-31 = system: UO-31
MDA-N = system: MDA-N
RXF 393 = system: RXF 393

Measured: GI50

CO[C@]12C[C@H](CNC(=O)c3cc(Br)c(Br)[nH]3)O[C@H]1NC(=O)N2
> 100 µM: HCT-15
inactive: 786-0 > 100 µM | A498 > 100 µM | A549 > 100 µM | ACHN > 100 µM | BT-549 > 100 µM | CAKI-1 > 100 µM | COLO 205 > 100 µM | DU-145 > 100 µM | EKVX > 100 µM | HCC 2998 > 100 µM | HCT-116 > 100 µM | HL-60 > 100 µM | HOP-62 > 100 µM | HOP-92 25.2 µM | HT-29 > 100 µM | Hs-578T > 100 µM | IGROV-1 > 100 µM | K562 > 100 µM | KM12 > 100 µM | LOX IMVI > 100 µM | M14 > 100 µM | MCF7 > 100 µM | MDA-MB-231 > 100 µM | MDA-MB-435 > 100 µM | MOLT-4 > 100 µM | Malme-3M > 100 µM | NCI-H226 > 100 µM | NCI-H23 > 100 µM | NCI-H460 > 100 µM | NCI-H522 > 100 µM | NCI/ADR-RES > 100 µM | OVCAR-3 > 100 µM | OVCAR-4 > 100 µM | OVCAR-5 > 100 µM | OVCAR-8 > 100 µM | PC-3 > 100 µM | RPMI-8226 > 100 µM | SF-268 > 100 µM | SF-295 > 100 µM | SF-539 > 100 µM | SK-MEL-28 > 100 µM | SK-MEL-2 > 100 µM | SK-MEL-5 > 100 µM | SK-OV-3 > 100 µM | SN12C > 100 µM | SNB-19 > 100 µM | SNB-75 > 100 µM | SR > 100 µM | SW-620 > 100 µM | T47D > 100 µM | TK-10 > 100 µM | U-251 > 100 µM | UACC-257 > 100 µM | UACC-62 > 100 µM | UO-31 > 100 µM
active: CCRF-CEM 0.548 µM

CN(C)c1ccc(/C=C2\N=C(c3ccc([N+](=O)[O-])cc3)OC2=O)cc1
inactive: 786-0 90.8 µM | A498 > 100 µM | A549 91 µM | ACHN 47.6 µM | BT-549 71.6 µM | CAKI-1 > 100 µM | CCRF-CEM 43.7 µM | COLO 205 99.1 µM | DU-145 > 100 µM | EKVX > 100 µM | HCC 2998 27.4 µM | HCT-116 34.8 µM | HL-60 41 µM | HOP-62 > 100 µM | HOP-92 27.1 µM | HT-29 72.6 µM | Hs-578T 40.5 µM | IGROV-1 > 100 µM | K562 36.1 µM | KM12 67.5 µM | LOX IMVI 23.1 µM | M14 > 100 µM | MCF7 49.9 µM | MDA-MB-231 64.6 µM | MDA-MB-435 81.8 µM | MDA-N 78.9 µM | MOLT-4 > 100 µM | Malme-3M 49.2 µM | NCI-H226 > 100 µM | NCI-H23 45.1 µM | NCI-H460 71 µM | NCI-H522 33.3 µM | OVCAR-3 44.9 µM | OVCAR-4 > 100 µM | OVCAR-5 > 100 µM | OVCAR-8 74.8 µM | PC-3 56.2 µM | RPMI-8226 41.7 µM | RXF 393 21.5 µM | SF-268 71.6 µM | SF-295 > 100 µM | SF-539 74.5 µM | SK-MEL-28 > 100 µM | SK-MEL-2 > 100 µM | SK-MEL-5 > 100 µM | SK-OV-3 > 100 µM | SN12C > 100 µM | SNB-19 99.8 µM | SNB-75 > 100 µM | SR 38.4 µM | SW-620 67.6 µM | T47D 48.4 µM | TK-10 > 100 µM | U-251 53.2 µM | UACC-257 57.3 µM | UACC-62 65.9 µM
20 µM: HCT-15

CC(C)(C)OC(=O)C1C(=O)NC(=O)CC1C(COCc1ccccc1)OCc1ccccc1 (stereo unspecified)
21.6 µM: HCT-15
inactive: 786-0 24.3 µM | A549 30.4 µM | ACHN 23 µM | BT-549 32.1 µM | CAKI-1 50.4 µM | CCRF-CEM 25.5 µM | DU-145 39.7 µM | EKVX 25.3 µM | HCC 2998 25.7 µM | HCT-116 18.6 µM | HL-60 21.4 µM | HOP-62 12.1 µM | HOP-92 15.5 µM | HT-29 18.7 µM | Hs-578T 23.1 µM | IGROV-1 22.9 µM | K562 30.1 µM | KM12 17.8 µM | LOX IMVI 19.2 µM | M14 18.9 µM | MCF7 19.9 µM | MDA-MB-231 17.2 µM | MDA-MB-435 19.1 µM | MDA-N 18 µM | MOLT-4 17.5 µM | Malme-3M 19.8 µM | NCI-H226 17.6 µM | NCI-H23 32.6 µM | NCI-H522 15.8 µM | OVCAR-3 21.8 µM | OVCAR-5 12.2 µM | OVCAR-8 29.3 µM | PC-3 12.4 µM | RPMI-8226 20 µM | SF-268 26.7 µM | SF-295 20.5 µM | SF-539 21.6 µM | SK-MEL-28 18.1 µM | SK-MEL-5 17.3 µM | SN12C > 10 µM | SNB-19 40.6 µM | SR 18 µM | SW-620 25.4 µM | T47D 14.3 µM | TK-10 35 µM | U-251 20.5 µM | UACC-257 20.7 µM | UO-31 27.1 µM

COc1ccc(NC(/C(C(=O)c2ccccc2)=C(\O)C(=O)/C=C(\O)c2ccccc2)c2ccc(OC)cc2)cc1 (stereo unspecified)
42.1 µM: HCT-15
inactive: 786-0 31 µM | A498 35.7 µM | A549 28.6 µM | ACHN 64.9 µM | BT-549 71.6 µM | CAKI-1 33.2 µM | CCRF-CEM 32.8 µM | COLO 205 31 µM | DU-145 41.6 µM | EKVX 18.7 µM | HCC 2998 26.6 µM | HCT-116 35.8 µM | HL-60 34.1 µM | HOP-62 52.4 µM | HOP-92 7.6 µM | HT-29 45.8 µM | Hs-578T 36 µM | IGROV-1 35 µM | K562 44.3 µM | KM12 30.9 µM | M14 23.2 µM | MCF7 39.5 µM | MDA-MB-231 > 100 µM | MDA-MB-435 20.6 µM | MOLT-4 42.8 µM | Malme-3M 21.2 µM | NCI-H226 > 100 µM | NCI-H23 47 µM | NCI-H460 43.6 µM | NCI-H522 15.2 µM | NCI/ADR-RES 40.3 µM | OVCAR-3 21.6 µM | OVCAR-4 30.5 µM | OVCAR-5 > 100 µM | OVCAR-8 59.6 µM | PC-3 39.3 µM | RPMI-8226 24.2 µM | RXF 393 37.1 µM | SF-268 43.1 µM | SF-295 33 µM | SF-539 38.8 µM | SK-MEL-28 32.9 µM | SK-MEL-2 23.6 µM | SK-MEL-5 49.3 µM | SK-OV-3 39.3 µM | SN12C > 100 µM | SNB-19 65.8 µM | SNB-75 17.8 µM | SR 31.6 µM | T47D 24.5 µM | TK-10 30.3 µM | U-251 38.9 µM | UACC-257 40.7 µM | UACC-62 52.4 µM | UO-31 53.6 µM

CCc1c2c(nc3ccc(O)cc13)-c1cc3c(c(=O)n1C2)COC(=O)[C@]3(O)CC [7-ETHYL-10-HYDROXYCAMPTOTHECIN]
0.00711 µM: HCT-15
active: 786-0 < 0.001 µM | A549 0.0525 µM | ACHN < 0.001 µM | BT-549 < 0.001 µM | CAKI-1 < 0.001 µM | CCRF-CEM < 0.001 µM | COLO 205 0.0556 µM | DU-145 < 0.001 µM | EKVX 0.178 µM | HCT-116 0.402 µM | HL-60 < 0.001 µM | HOP-62 < 0.001 µM | Hs-578T 0.0791 µM | KM12 0.0212 µM | LOX IMVI < 0.001 µM | M14 < 0.001 µM | MCF7 0.01 µM | MDA-MB-231 0.00344 µM | MDA-N 0.00206 µM | MOLT-4 < 0.001 µM | NCI-H226 < 0.001 µM | NCI-H23 < 0.001 µM | NCI-H460 < 0.001 µM | OVCAR-3 0.0116 µM | OVCAR-4 0.00227 µM | OVCAR-5 0.00472 µM | PC-3 0.00746 µM | RPMI-8226 0.236 µM | SF-268 < 0.001 µM | SF-295 < 0.001 µM | SF-539 < 0.001 µM | SK-MEL-28 0.0194 µM | SK-MEL-2 0.0231 µM | SN12C < 0.001 µM | SNB-19 < 0.001 µM | SR < 0.001 µM | T47D < 0.001 µM | TK-10 0.0933 µM | U-251 < 0.001 µM | UACC-257 0.013 µM | UACC-62 < 0.001 µM
